Measured values reported in patent US20130085064A1, “PESTICIDAL MIXTURES CONTAINING ISOXAZOLINE DERIVATIVES AND INSECTICIDE OR NEMATOICIDAL BIOLOGICAL AGENT” (priority 2010, published 2013).
Several values for one entry are separate records, joined by “and”; a condition that tells them apart may be missing. Identical values can stand only once. Like-named read-outs stand apart in the source and are kept apart here.

What was measured:
[1] = test system: Heliothis virescens (tobacco budworm); assay: Heliothis virescens eggs in 24-well microtiter plate on artificial diet, larval mortality; format: in vivo; conditions: for pest or weed control at 6.25 ppm / pest or weed control at 12.5 ppm / pest or weed control at 25 ppm / pest or weed control at 50 ppm / pest or weed control at 100 ppm / pest or weed control at 200 ppm / pest or weed control at 0.375 ppm / pest or weed control at 0.75 ppm / pest or weed control at 1.5 ppm / pest or weed control at 3 ppm / pest or weed control at 6 ppm / pest or weed control at 12 ppm: Heliothis virescens, 96 h, read-out: AVERAGE DEAD IN %
From the text: (§1) The action to be expected E for a given active ingredient combination obeys the so-called COLBY formula and can be calculated as follows (COLBY, S.R. “Calculating synergistic and antagonistic responses of herbicide combination”. Weeds, Vol. 15, pages 20-22; 1967):
(§2) ppm=milligrams of active ingredient (=a.i.) per liter of spray mixture X=% action by active ingredient A) using p ppm of active ingredient Y=% action by active ingredient B) using q ppm of active ingredient.
(§3) According to COLBY, the expected (additive) action of active ingredients A)+B) using p+q ppm of active ingredient is
(§4) If the action actually observed (O) is greater than the expected action (E), then the action of the combination is super-additive, i.e. there is a synergistic effect. In mathematical terms the synergism factor SF corresponds to O/E. In the agricultural practice an SF of ≧1.2 indicates significant improvement over the purely complementary addition of activities (expected activity), while an SF of ≦0.9 in the practical application routine signals a loss of activity compared to the expected activity.
Heliothis Virescens (Tobacco Budworm)
Eggs (0-24 h old) are placed in 24-well microtiter plate on artificial diet and treated with test solutions (DMSO) by pipetting. After an incubation period of 4 days, samples are checked for larval mortality.

[2] = test system: Tetranychus urticae (two-spotted spider mite); assay: Tetranychus urticae bean leaf discs in 24-well microtiter plates, mixed population mortality; format: in vivo; conditions: 8 days
From the text: as §1, §2, §3, §4
Tetranychus Urticae (Two-Spotted Spider Mite)
Bean leaf discs on agar in 24-well microtiter plates are sprayed with test solutions (DMSO). After drying, the leaf discs are infested with mite populations of mixed ages. 8 days later, discs are checked for mixed population mortality.

[3] = single compound, 12.5 ppm AI, larval mortality, 4 days
[4] = single compound, 25 ppm AI, larval mortality, 4 days
[5] = single compound, 50 ppm AI, larval mortality, 4 days
[6] = single compound, 100 ppm AI, larval mortality, 4 days
[7] = single compound, 200 ppm AI, larval mortality, 4 days

Molecule: Cc1cc(C2=NOC(c3cc(Cl)cc(Cl)c3)(C(F)(F)F)C2)ccc1C(=O)NC1CSC1 (racemic) [SYN 545706]
- AVERAGE DEAD IN % ([1]; single compound, 0.1 ppm AI, larval mortality, 4 days): 0%
- AVERAGE DEAD IN % ([1]; single compound, 0.2 ppm AI, larval mortality, 4 days): 35% and 25%
- AVERAGE DEAD IN % ([1]; single compound, 0.4 ppm AI, larval mortality, 4 days): 90% and 78%
- AVERAGE DEAD IN % ([1]; single compound, 0.8 ppm AI, larval mortality, 4 days): 95% and 88%
- AVERAGE DEAD IN % ([1]; single compound, 1.6 ppm AI, larval mortality, 4 days): 90% and 91%
- AVERAGE DEAD IN % ([1]; single compound, 3.2 ppm AI, larval mortality, 4 days): 98% and 96%

Molecule: O=[N+]([O-])NC1=NCCN1Cc1ccc(Cl)nc1 [Imidacloprid]
- AVERAGE DEAD IN % ([2]; 25 ppm alone): 0%
- AVERAGE DEAD IN % ([2]; 50 ppm alone): 0%
- AVERAGE DEAD IN % ([2]; 100 ppm alone): 25%
- AVERAGE DEAD IN % ([2]; 200 ppm alone): 0%
- AVERAGE DEAD IN % ([2]; 400 ppm alone): 13%
- AVERAGE DEAD IN % ([2]; 800 ppm alone): 25%
- AVERAGE DEAD IN % ([2]; Imidacloprid alone, 25 ppm, Table 123): 0%
- AVERAGE DEAD IN % ([2]; Imidacloprid alone, 50 ppm, Table 123): 0%
- AVERAGE DEAD IN % ([2]; Imidacloprid alone, 100 ppm, Table 123): 25%
- AVERAGE DEAD IN % ([2]; Imidacloprid alone, 200 ppm, Table 123): 0%
- AVERAGE DEAD IN % ([2]; Imidacloprid alone, 400 ppm, Table 123): 13%
- AVERAGE DEAD IN % ([2]; Imidacloprid alone, 800 ppm, Table 123): 25%
- pest or weed control at 6.25 ppm ([1]; Imidacloprid alone 6.25 ppm AI): 0%
- pest or weed control at 12.5 ppm ([1]; Imidacloprid alone 12.5 ppm AI): 0%
- pest or weed control at 25 ppm ([1]; Imidacloprid alone 25 ppm AI): 20%
- pest or weed control at 50 ppm ([1]; Imidacloprid alone 50 ppm AI): 50%
- pest or weed control at 100 ppm ([1]; Imidacloprid alone 100 ppm AI): 95%
- pest or weed control at 200 ppm ([1]; Imidacloprid alone 200 ppm AI): 100%
- pest or weed control at 6.25 ppm ([1]; single compound at 6.25 ppm AI): 0%
- pest or weed control at 12.5 ppm ([1]; single compound at 12.5 ppm AI): 0%
- pest or weed control at 25 ppm ([1]; single compound at 25 ppm AI): 20%
- pest or weed control at 50 ppm ([1]; single compound at 50 ppm AI): 50%
- pest or weed control at 100 ppm ([1]; single compound at 100 ppm AI): 95%
- pest or weed control at 200 ppm ([1]; single compound at 200 ppm AI): 100%
- pest or weed control at 6.25 ppm ([1]; single compound, 6.25 ppm AI, larval mortality, 4 days): 0%
- pest or weed control at 12.5 ppm [1, 3]: 0%
- pest or weed control at 25 ppm [1, 4]: 75%
- pest or weed control at 50 ppm [1, 5]: 85%
- pest or weed control at 100 ppm [1, 6]: 88%
- pest or weed control at 200 ppm [1, 7]: 100%

Molecule: N#CCNC(=O)c1cnccc1C(F)(F)F [Flonicamid]
- AVERAGE DEAD IN % ([1]; Flonicamid alone 12.5 ppm AI): 0%
- AVERAGE DEAD IN % ([1]; Flonicamid alone 25 ppm AI): 0%
- AVERAGE DEAD IN % ([1]; Flonicamid alone 50 ppm AI): 0%
- AVERAGE DEAD IN % ([1]; Flonicamid alone 100 ppm AI): 0%
- AVERAGE DEAD IN % ([1]; Flonicamid alone 200 ppm AI): 0%
- AVERAGE DEAD IN % ([1]; Flonicamid alone 400 ppm AI): 0%
- AVERAGE DEAD IN % ([1]; single compound at 12.5 ppm AI): 0%
- AVERAGE DEAD IN % ([1]; single compound at 25 ppm AI): 0%
- AVERAGE DEAD IN % ([1]; single compound at 50 ppm AI): 0%
- AVERAGE DEAD IN % ([1]; single compound at 100 ppm AI): 0%
- AVERAGE DEAD IN % ([1]; single compound at 200 ppm AI): 0%
- AVERAGE DEAD IN % ([1]; single compound at 400 ppm AI): 0%
- AVERAGE DEAD IN % [1, 3]: 0%
- AVERAGE DEAD IN % [1, 4]: 0%
- AVERAGE DEAD IN % [1, 5]: 15%
- AVERAGE DEAD IN % [1, 6]: 0%
- AVERAGE DEAD IN % [1, 7]: 0%
- AVERAGE DEAD IN % ([1]; single compound, 400 ppm AI, larval mortality, 4 days): 0%

Molecule: Emamectin
- AVERAGE DEAD IN % ([2]; 0.1 ppm alone): 70%
- AVERAGE DEAD IN % ([2]; 0.2 ppm alone): 75%
- AVERAGE DEAD IN % ([2]; 0.4 ppm alone): 93%
- AVERAGE DEAD IN % ([2]; 0.8 ppm alone): 95%
- AVERAGE DEAD IN % ([2]; 1.6 ppm alone): 95%
- AVERAGE DEAD IN % ([2]; 3.2 ppm alone): 100%
- AVERAGE DEAD IN % ([2]; Emamectin alone, 0.1 ppm, Table 121): 70%
- AVERAGE DEAD IN % ([2]; Emamectin alone, 0.2 ppm, Table 121): 75%
- AVERAGE DEAD IN % ([2]; Emamectin alone, 0.4 ppm, Table 121): 93%
- AVERAGE DEAD IN % ([2]; Emamectin alone, 0.8 ppm, Table 121): 95%
- AVERAGE DEAD IN % ([2]; Emamectin alone, 1.6 ppm, Table 121): 95%
- AVERAGE DEAD IN % ([2]; Emamectin alone, 3.2 ppm, Table 121): 100%

Molecule: CN/C(=N\[N+](=O)[O-])NCc1cnc(Cl)s1 [Clothianidin]
- pest or weed control at 0.375 ppm ([1]; Clothianidin alone 0.375 ppm AI): 0%
- pest or weed control at 0.75 ppm ([1]; Clothianidin alone 0.75 ppm AI): 0%
- pest or weed control at 1.5 ppm ([1]; Clothianidin alone 1.5 ppm AI): 0%
- pest or weed control at 3 ppm ([1]; Clothianidin alone 3 ppm AI): 3%
- pest or weed control at 6 ppm ([1]; Clothianidin alone 6 ppm AI): 38%
- pest or weed control at 12 ppm ([1]; Clothianidin alone 12 ppm AI): 48%
- pest or weed control at 0.375 ppm ([1]; single compound at 0.375 ppm AI): 0%
- pest or weed control at 0.75 ppm ([1]; single compound at 0.75 ppm AI): 0%
- pest or weed control at 1.5 ppm ([1]; single compound at 1.5 ppm AI): 0%
- pest or weed control at 3 ppm ([1]; single compound at 3 ppm AI): 3%
- pest or weed control at 6 ppm ([1]; single compound at 6 ppm AI): 38%
- pest or weed control at 12 ppm ([1]; single compound at 12 ppm AI): 48%
- pest or weed control at 0.375 ppm ([1]; single compound, 0.375 ppm AI, larval mortality, 4 days): 0%
- pest or weed control at 0.75 ppm ([1]; single compound, 0.75 ppm AI, larval mortality, 4 days): 0%
- pest or weed control at 1.5 ppm ([1]; single compound, 1.5 ppm AI, larval mortality, 4 days): 0%
- pest or weed control at 3 ppm ([1]; single compound, 3 ppm AI, larval mortality, 4 days): 0%
- pest or weed control at 6 ppm ([1]; single compound, 6 ppm AI, larval mortality, 4 days): 45%
- pest or weed control at 12 ppm ([1]; single compound, 12 ppm AI, larval mortality, 4 days): 80%
